Data from patent US20260083865A1, “PROSTATE SPECIFIC MEMBRANE ANTIGEN (PSMA) LIGANDS AND USE THEREOF” (priority 2022, published 2026).
Read-outs that look alike come from different tables or passages of the source. Numbered stars: 1 amine (or outer) side, 2 acyl side, 3 side chain; on linkers, the order of the positions; unused ones are H or OH. Bridge positions count the residues as written; N and C are the ends. Square brackets hold non-standard residues; d marks the D form. Side chains are listed from the residue outwards. Peptide text beside a SMILES is read from it. * marks the point of attachment. TtdsdLys(DOTA)NH2 = NC(=O)[C@@H](CCCCNC(=O)CN1CCN(CC(=O)O)CCN(CC(=O)O)CCN(CC(=O)O)CC1)NC(=O)CCC(=O)NCCCOCCOCCOCCCN*; DOTA = O=C(O)CN1CCN(CC(=O)O)CCN(CC(=O)*)CCN(CC(=O)O)CC1; Phe(3-Cl) = N[C@@H](Cc1cccc(Cl)c1)C(=O)O; Phe(4-Cl) = N[C@@H](Cc1ccc(Cl)cc1)C(=O)O; Phe(3-F) = N[C@@H](Cc1cccc(F)c1)C(=O)O; Arg(Me) = CNC(=N)NCCC[C@H](N)C(=O)O; Ethylenediamine = C(CN[*:2])N[*:1]; hArg = N=C(N)NCCCC[C@H](N)C(=O)O; X1 = O=C(CC1CCN([*:1])CC1)[*:2]; Cit = NC(=O)NCCC[C@H](N)C(=O)O; Tle = CC(C)(C)[C@H](N)C(=O)O; 4Amb = NCc1ccc(C(=O)O)cc1; Nle = CCCC[C@H](N)C(=O)O; Hexanoyl = CCCCCC(=O)*; Aib = CC(C)(N)C(=O)O; Guanidino = N=C(N)N*; CH2 = C([*:1])[*:2]

What was measured:
[1] = biological target: T1, PSMA-expressing C4-2 cells (Homo sapiens, UniProt Q04609); experiment: FACS binding assay (competition with 50 nM PSM-0183); settings: read-out: pIC50 [C4-2] CAT (converted)
T1 construct: PSMA-expressing C4-2 cells (ATCC, Cat. No. CRL-3314) were cultured in RPMI-1640; host or cells: C4-2 cells
T1 sequence (Q04609 whole entry): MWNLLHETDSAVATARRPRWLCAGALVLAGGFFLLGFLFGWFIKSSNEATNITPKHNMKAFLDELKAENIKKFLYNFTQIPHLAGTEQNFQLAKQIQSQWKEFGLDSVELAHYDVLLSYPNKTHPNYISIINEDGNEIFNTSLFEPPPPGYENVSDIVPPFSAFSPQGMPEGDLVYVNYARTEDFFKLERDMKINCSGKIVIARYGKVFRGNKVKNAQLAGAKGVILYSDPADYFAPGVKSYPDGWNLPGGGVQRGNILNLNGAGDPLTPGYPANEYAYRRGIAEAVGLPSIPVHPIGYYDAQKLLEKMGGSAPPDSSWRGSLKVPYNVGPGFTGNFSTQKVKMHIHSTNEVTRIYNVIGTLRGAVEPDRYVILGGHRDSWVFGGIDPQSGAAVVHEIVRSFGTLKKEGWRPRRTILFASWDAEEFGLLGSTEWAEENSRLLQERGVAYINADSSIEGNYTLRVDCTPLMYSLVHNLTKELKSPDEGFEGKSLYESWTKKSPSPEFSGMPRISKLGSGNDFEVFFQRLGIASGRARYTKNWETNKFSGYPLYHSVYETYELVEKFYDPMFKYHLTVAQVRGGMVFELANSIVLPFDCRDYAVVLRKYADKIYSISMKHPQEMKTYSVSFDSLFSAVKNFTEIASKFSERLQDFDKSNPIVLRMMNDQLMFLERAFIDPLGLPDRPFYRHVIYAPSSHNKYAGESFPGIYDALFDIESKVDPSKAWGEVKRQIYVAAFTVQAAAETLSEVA
How it was run: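 Competition format: fluorescent tracer PSM-0183 (50 nM) displaced from PSMA on C4-2 cells by a test compound titration over 1 h at 4 °C. Bound tracer was quantified as flow-cytometric AF488 median fluorescence after washing. Four-parameter logistic fits of MFI data gave IC50 and pIC50.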

[2] = biological target: T2, Fc-fusion protein of human PSMA (hPSMA-Fc) (Homo sapiens, UniProt Q04609); experiment: Surface plasmon resonance assay (Biacore T200, single cycle kinetic); assay type: binding; settings: read-out: pKD CAT (converted)
T2 construct: purchased Acro Biosystems PSA-H5264
T2 sequence (Q04609 44-750 limits assumed): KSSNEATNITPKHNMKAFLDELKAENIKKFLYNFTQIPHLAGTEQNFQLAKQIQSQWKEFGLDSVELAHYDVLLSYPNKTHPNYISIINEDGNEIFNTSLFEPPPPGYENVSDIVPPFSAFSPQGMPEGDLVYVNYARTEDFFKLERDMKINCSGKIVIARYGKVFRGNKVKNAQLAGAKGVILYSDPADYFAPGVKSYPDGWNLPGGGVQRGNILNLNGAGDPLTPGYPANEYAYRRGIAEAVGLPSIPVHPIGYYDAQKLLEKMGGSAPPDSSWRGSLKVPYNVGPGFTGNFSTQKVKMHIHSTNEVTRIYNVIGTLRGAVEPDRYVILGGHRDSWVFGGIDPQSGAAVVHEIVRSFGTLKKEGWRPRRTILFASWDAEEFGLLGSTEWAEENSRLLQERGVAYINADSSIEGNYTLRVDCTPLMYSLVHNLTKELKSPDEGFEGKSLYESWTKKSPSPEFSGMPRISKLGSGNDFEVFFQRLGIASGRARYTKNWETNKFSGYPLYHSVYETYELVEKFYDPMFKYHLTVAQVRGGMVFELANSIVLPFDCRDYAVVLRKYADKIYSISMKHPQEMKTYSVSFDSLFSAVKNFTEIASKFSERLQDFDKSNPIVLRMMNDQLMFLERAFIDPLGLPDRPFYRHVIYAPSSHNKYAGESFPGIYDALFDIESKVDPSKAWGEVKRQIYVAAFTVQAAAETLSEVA
How it was run: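 KD, expressed as pKD, came from 1:1 Langmuir fits of reference- and buffer-blank-subtracted SPR data. The runs were single-cycle kinetics at 25° C in HBST/0.1% DMSO over human PSMA-Fc, captured to ~1000 RU on a peptide-coated CM5 surface and regenerated with 10 mM glycine pH 1.5.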

[3] = pIC50 category of FACS binding, C4-2 cells
[4] = pKD category for PSMA SPR activity assay, hPSMA-Fc, 25° C.
[5] = FACS binding, PSMA-expressing C4-2 cells, pIC50 category
[6] = PSMA SPR assay, hPSMA-Fc, 25° C., pKD category

IC50 [1, 3]	Kd [2, 4]	SMILES	also measured
200 to 1260 nM	< 12.6 nM	CC(=O)NCCCC[C@@H]1NC(=O)[C@@H](NC(=O)[C@H](Cc2ccc(Cl)cc2)NC(=O)C(C)(C)NC(=O)[C@@H](NC(=O)CC2CCN(C(=O)CN3CCN(CC(=O)O)CCN(CC(=O)O)CCN(CC(=O)O)CC3)CC2)[C@@H](C)O)CSSC[C@@H](C(=O)N[C@H](C(=O)N[C@H](C(N)=O)[C@@H](C)O)C(C)(C)C)NC(=O)[C@H](CC(N)=O)NC(=O)C(C)(C)NC(=O)[C@H](CCCNC(=N)N)NC1=O [PSM-0466, DOTA-Cmp-Thr-Aib-Pcf-[Cys-Lys(Ac)-Arg-Aib-Asn-Cys]-Tle-Thr-NH2] ({DOTA}-[X1]T[Aib][Phe(4-Cl)]CK(Ac)R[Aib]NC[Tle]T-NH2; disulfide 5-10)	–
–	–	CCCCCC(=O)N[C@H](C(=O)N[C@@H](C)C(=O)N[C@@H](Cc1ccccc1)C(=O)N[C@H]1CSSC[C@@H](C(=O)N[C@H](C(=O)N[C@H](C(=O)N[C@@H](CC(=O)O)C(=O)NCCCOCCOCCOCCCNC(=O)CCC(=O)N[C@H](CCCCNC(=O)CN2CCN(CC(=O)O)CCN(CC(=O)O)CCN(CC(=O)O)CC2)C(N)=O)[C@@H](C)O)C(C)(C)C)NC(=O)[C@H](CC(N)=O)NC(=O)[C@H](C)NC(=O)[C@H](CCCNC(=N)N)NC(=O)[C@H](CCCCN)NC1=O)[C@@H](C)O [PSM-0568, Hex-Thr-Ala-Phe-[Cys-Lys-Arg-Ala-Asn-Cys]-Tle-Thr-Asp-Ttds-lys(DOTA)-NH2] (Hexanoyl-TAFCKRANC[Tle]TD-{TtdsdLys(DOTA)NH2}; disulfide 4-9)	IC50 ([1]; FACS binding, C4-2 cells, category): < 200 nM; Kd ([2]; PSMA SPR assay, category): 12.6 to 126 nM
–	–	CC(=O)N[C@H](C(=O)NC(C)(C)C(=O)N[C@@H](Cc1ccccc1)C(=O)N[C@H]1CSSC[C@@H](C(=O)N[C@H](C(=O)N[C@H](C(=O)N[C@@H](CC(=O)O)C(N)=O)[C@@H](C)O)C(C)(C)C)NC(=O)[C@H](CC(N)=O)NC(=O)C(C)(C)NC(=O)[C@H](CCCNC(=N)N)NC(=O)[C@H](CCC(N)=O)NC1=O)[C@@H](C)O [PSM-0210, Ac-Thr-Aib-Phe-[Cys-Gln-Arg-Aib-Asn-Cys]-Tle-Thr-Asp-NH2] (Ac-T[Aib]FCQR[Aib]NC[Tle]TD-NH2; disulfide 4-9)	IC50 ([1]; FACS binding, C4-2 cells, competition with 50 nM PSM-0183, category): < 200 nM; Kd ([2]; SPR, hPSMA-Fc, single cycle kinetic, 25° C., category): 12.6 to 126 nM
< 200 nM	< 12.6 nM	CC(=O)N[C@H](C(=O)NC(C)(C)C(=O)N[C@@H](Cc1ccccc1)C(=O)N[C@H]1CSSC[C@@H](C(=O)N[C@H](C(=O)N[C@H](C(N)=O)[C@@H](C)O)C(C)(C)C)NC(=O)[C@H](CC(N)=O)NC(=O)[C@H](CCCCNC(=O)c2ccc(CNC(=O)CN3CCN(CC(=O)O)CCN(CC(=O)O)CCN(CC(=O)O)CC3)cc2)NC(=O)[C@H](CCCNC(=N)N)NC(=O)[C@H](CCCCN)NC1=O)[C@@H](C)O [PSM-0419, Ac-Thr-Aib-Phe-[Cys-Lys-Arg-Lys(DOTA-Pamb)-Asn-Cys]-Tle-Thr-NH2] (Ac-T[Aib]FCKRK([4Amb-DOTA])NC[Tle]T-NH2; disulfide 4-9)	–
200 to 1260 nM	< 12.6 nM	C[C@@H](O)[C@H](NC(=O)[C@@H](NC(=O)[C@@H]1CSSC[C@H](NC(=O)[C@H](Cc2cccc(Cl)c2)NC(=O)C(C)(C)NC(=O)[C@@H](NC(=O)CC2CCN(C(=O)CN3CCN(CC(=O)O)CCN(CC(=O)O)CCN(CC(=O)O)CC3)CC2)[C@@H](C)O)C(=O)N[C@@H](CCCCN)C(=O)N[C@@H](CCCNC(N)=O)C(=O)NC(C)(C)C(=O)N[C@@H](CC(N)=O)C(=O)N1)C(C)(C)C)C(N)=O [PSM-0431, DOTA-Cmp-Thr-Aib-Mcf-[Cys-Lys-Cit-Aib-Asn-Cys]-Tle-Thr-NH2] ({DOTA}-[X1]T[Aib][Phe(3-Cl)]CK[Cit][Aib]NC[Tle]T-NH2; disulfide 5-10)	–
–	–	C[C@@H](O)[C@H](NC(=O)[C@@H](NC(=O)[C@@H]1CSSC[C@H](NC(=O)[C@H](Cc2ccc(Cl)cc2)NC(=O)C(C)(C)NC(=O)[C@@H](NC(=O)CC2CCN(C(=O)CN3CCN(CC(=O)O)CCN(CC(=O)O)CCN(CC(=O)O)CC3)CC2)[C@@H](C)O)C(=O)N[C@@H](CCCCN)C(=O)N[C@@H](CCCCNC(=N)N)C(=O)NC(C)(C)C(=O)N[C@@H](CC(N)=O)C(=O)N1)C(C)(C)C)C(N)=O [PSM-0317, DOTA-Cmp-Thr-Aib-Pcf-[Cys-Lys-Har-Aib-Asn-Cys]-Tle-Thr-NH2] ({DOTA}-[X1]T[Aib][Phe(4-Cl)]CK[hArg][Aib]NC[Tle]T-NH2; disulfide 5-10)	IC50 [1, 5]: < 200 nM; Kd [2, 6]: < 12.6 nM
–	–	CNC(=N)NCCC[C@@H]1NC(=O)[C@H](CCCCN)NC(=O)[C@@H](NC(=O)[C@H](Cc2ccc(Cl)cc2)NC(=O)C(C)(C)NC(C)=O)CSSC[C@@H](C(=O)N[C@H](C(=O)NCCNC(=O)CN2CCN(CC(=O)O)CCN(CC(=O)O)CCN(CC(=O)O)CC2)C(C)(C)C)NC(=O)[C@H](CC(N)=O)NC(=O)C(C)(C)NC1=O [PSM-0320, Ac-Aib-Pcf-[Cys-Lys-Arg(Me)-Aib-Asn-Cys]-Tle-en-DOTA] (Ac-[Aib][Phe(4-Cl)]CK[Arg(Me)][Aib]NC[Tle]-{Ethylenediamine-DOTA}; disulfide 3-8)	IC50 [1, 5]: < 200 nM; Kd [2, 6]: < 12.6 nM
200 to 1260 nM	12.6 to 126 nM	CCCC[C@H](NC(=O)[C@@H]1CSSC[C@H](NC(=O)[C@H](Cc2ccccc2)NC(=O)[C@H](C)NC(=O)[C@@H](NC(C)=O)[C@@H](C)O)C(=O)N[C@@H](CCCCN)C(=O)N[C@@H](CCCNC(=N)N)C(=O)N[C@@H](C)C(=O)N[C@@H](CC(N)=O)C(=O)N1)C(=O)N[C@H](C(=O)N[C@@H](CC(=O)O)C(=O)NCCCOCCOCCOCCCNC(=O)CCC(=O)N[C@H](CCCCNC(=O)CN1CCN(CC(=O)O)CCN(CC(=O)O)CCN(CC(=O)O)CC1)C(N)=O)[C@@H](C)O [PSM-0533, Ac-Thr-Ala-Phe-[Cys-Lys-Arg-Ala-Asn-Cys]-Nle-Thr-Asp-Ttds-lys(DOTA)-NH2] (Ac-TAFCKRANC[Nle]TD-{TtdsdLys(DOTA)NH2}; disulfide 4-9)	–
< 200 nM	< 12.6 nM	C[C@@H](O)[C@H](NC(=O)[C@@H](NC(=O)[C@@H]1CSSC[C@H](NC(=O)[C@H](Cc2ccc(Cl)cc2)NC(=O)C(C)(C)NC(=O)CC2CCN(C(=O)CN3CCN(CC(=O)O)CCN(CC(=O)O)CCN(CC(=O)O)CC3)CC2)C(=O)N[C@@H](CCCCN)C(=O)N[C@@H](CCC(=O)NC(=N)N)C(=O)NC(C)(C)C(=O)N[C@@H](CC(N)=O)C(=O)N1)C(C)(C)C)C(N)=O [PSM-0489, DOTA-Cmp-Aib-Pcf-[Cys-Lys-Gin (Gu)-Aib-Asn-Cys]-Tle-Thr-NH2] ({DOTA}-[X1][Aib][Phe(4-Cl)]CKE(Guanidino)[Aib]NC[Tle]T-NH2; disulfide 4-9)	–
< 200 nM	< 12.6 nM	C[C@@H](O)[C@H](NC(=O)[C@@H](NC(=O)[C@@H]1CSSC[C@H](NC(=O)[C@H](Cc2ccc(Cl)cc2)NC(=O)C(C)(C)NC(=O)[C@@H](NC(=O)CC2CCN(C(=O)CN3CCN(CC(=O)O)CCN(CC(=O)O)CCN(CC(=O)O)CC3)CC2)[C@@H](C)O)C(=O)N[C@@H](CCCCN)C(=O)N[C@@H](CCCNC(=N)N)C(=O)NC(C)(C)C(=O)N[C@@H](CC(N)=O)C(=O)N1)C(C)(C)C)C(N)=O [PSM-0445, DOTA-Cmp-Thr-Aib-Pcf-[Cys-Lys-Arg-Aib-Asn-Cys]-Tle-Thr-NH2] ({DOTA}-[X1]T[Aib][Phe(4-Cl)]CKR[Aib]NC[Tle]T-NH2; disulfide 5-10)	–
–	–	C[C@@H](O)[C@H](NC(=O)CC1CCN(C(=O)CN2CCN(CC(=O)O)CCN(CC(=O)O)CCN(CC(=O)O)CC2)CC1)C(=O)NC(C)(C)C(=O)N[C@@H](Cc1ccc(Cl)cc1)C(=O)N[C@H]1CSCSC[C@@H](C(=O)N[C@H](C(N)=O)C(C)(C)C)NC(=O)[C@H](CC(N)=O)NC(=O)C(C)(C)NC(=O)[C@H](CCCNC(=N)N)NC(=O)[C@H](CCCCN)NC1=O [PSM-0332, DOTA-Cmp-Thr-Aib-Pcf-[Smc-Lys-Arg-Aib-Asn-Cys]-Tle-NH2] ({DOTA}-[X1]T[Aib][Phe(4-Cl)]CKR[Aib]NC[Tle]-NH2; linker 5-10 via CH2)	IC50 [1, 5]: < 200 nM; Kd [2, 6]: < 12.6 nM
< 200 nM	12.6 to 126 nM	CC(=O)N[C@H](C(=O)NC(C)(C)C(=O)N[C@@H](Cc1ccccc1)C(=O)N[C@H]1CSSC[C@@H](C(=O)N[C@H](C(=O)N[C@H](C(=O)N[C@@H](CC(=O)O)C(N)=O)[C@@H](C)O)C(C)(C)C)NC(=O)[C@H](CC(N)=O)NC(=O)[C@H](CCCCNC(=O)CN2CCN(CC(=O)O)CCN(CC(=O)O)CCN(CC(=O)O)CC2)NC(=O)[C@H](CCCNC(=N)N)NC(=O)[C@H](CCCCN)NC1=O)[C@@H](C)O [PSM-0397, Ac-Thr-Aib-Phe-[Cys-Lys-Arg-Lys(DOTA)-Asn-Cys]-Tle-Thr-Asp-NH2] (Ac-T[Aib]FCKRK(DOTA)NC[Tle]TD-NH2; disulfide 4-9)	–
< 200 nM	< 12.6 nM	CC(=O)N[C@H](C(=O)NC(C)(C)C(=O)N[C@@H](Cc1cccc(F)c1)C(=O)N[C@H]1CSSC[C@@H](C(=O)N[C@H](C(=O)N[C@H](C(N)=O)[C@@H](C)O)C(C)(C)C)NC(=O)[C@H](CC(N)=O)NC(=O)C(C)(C)NC(=O)[C@H](CCCNC(=N)N)NC(=O)[C@H](CCCCN)NC1=O)[C@@H](C)O [PSM-0551, Ac-Thr-Aib-Mff-[Cys-Lys-Arg-Aib-Asn-Cys]-Tle-Thr-NH2] (Ac-T[Aib][Phe(3-F)]CKR[Aib]NC[Tle]T-NH2; disulfide 4-9)	–
